Source: patent US6541203B2, “Detecting structural or synthetic information about chemical compounds” (President and Fellows of Harvard College, priority 1998, dated 2003)

Assays:
RNA molecules = settings: specific RNA molecules; cited from earlier work
anti-dig = assay: Detection of hapten on TANTAGEL beads with anti-dig and AP-coupled secondary antibody; type: binding, mouse; settings: 100% coupling on the beads
Description: Ninety (90) micrometer TANTAGEL-amine beads were mixed with dig-NHS ester at different concentrations to covalently label the beads with dig. Dig-NHS was added in amounts sufficient to label 100%, 10%, 1%, 0.1%, 0.01% and 0.001% of the amino groups. The remaining amino groups were capped with acetic anhydride, and the beads were washed.
Dig-labeled beads were incubated with anti-dig (1 microgram/ml) in the presence of BSA and buffer. The beads were washed, incubated with alkaline phosphatase (AP)-coupled goat anti-mouse antibody, and washed again. Then a chromogenic precipitating substrate (commercially available) for detecting AP was added. Blue color on the beads indicates the presence of AP, and thus effective detection of the dig hapten by antibody.

## N=C(N)NCCC[C@@H](N)C(=O)O [D-arginine]
RNA molecules
  Kd: 1700 nM

## c1cc2ccc3cccc4ccc(c1)c2c34 [pyrene]
anti-dig
  Staining of beads: no staining
